The values that follow come from patent publication US7041647B2, “Synthetic peptide having an ionophoric and antimicrobial activity” (Corporacion Para Investigaciones Biologicas, priority 2003, dated 2006).

No end group written: not given here.

The subject of data set [1] is inner membrane of rat liver mitochondria. Description: Mitochondrial swelling in isotonic media (ionophoric activity). The format is biochemical. The conditions noted are these: pH 7.4. As to the method:
FIG. 1 Ionophoric activity of P1 in the inner membrane of rat liver mitochondria. The mitochondria at a concentration of 0.5 mg/ml of protein were incubated in the media 125 mM KNO3, 5 mM HEPES-tris, pH 7.4 (Panel A) and 125 mM NH4NO3, 5 mM HEPES-tris, pH 7.4 (Panel B), both media were supplemented with 2.5 μM rotenone and 1 μM oligomycin (RO), added just after the mitochondria. The peptide P1 was added at the following final concentrations: 1.8 μM of P1 (curves a); 0.36 μM of P1 (curves b); 0.18 μM of P1 (curves c); 0.18 μM of P1 plus 2.5 mM of succinate (curves d); 0.12 μM of valinomycin (curve e), and 2 μM of FCCP, (curve f). In Panel C, the permeability of the inner mitochondrial membrane induced by the peptide P1 was evaluated for the following cations: H^+, K^+, Na^+, and Tris^+. […]
The mitochondria were isolated and prepared as described above. […] The mitochondrial swelling was spectrophotometrically monitored at 540 nm (Turner Spectrophotometer, model SP-850, USA, modified with a magnetic mini-stirrer). The curves were recorded in a graphical recorder (Linseis model L250E, USA), scanned and then processed in the program Adobe Photoshop V5.0. […]

Data set [2] has as its system Bacteroides fragilis (ATCC 25285). Particulars: ATCC 25285, 2 h, 7.1 μM.
The nature of data set [3]: Solubility in aqueous solutions. It is filed as physicochemical. An excerpt:
The peptides were synthesized by the method of solid phase synthesis (Merrifield B. 1963. Solid Phase Peptide Synthesis, Journal American Chemical Society. 85: 2149–2154; and Houghten R. A. 1985. General methods for the rapid solid phase synthesis of large numbers of peptides: specificity of antigen antibody interaction at the level of individual amino acids. Proc. Natl. Acad. Sci. USA. 82: 5131–5135.) under the methods of good manufacture practices (GMP). A resin p-methyl benzidrylamine (MBHA) (0.7 meq/g), t-boc amino acids (Bachem, USA) and the process of high-low cleavage were used in the synthesis. (Andreu D, Merrifield RB, Steiner H, Boman HG. 1983. Solid-phase synthesis of Cecropin A and Related Peptides. Proc. Natl. Acad. Sci USA 80: 6475–6479.). Once synthesized, the peptides were extracted with 10% acetic acid in water. The peptides were purified by high pressure liquid chromatography (HPLC), in a reverse phase column, and they were analyzed by means of mass spectrometry (Maldi-Tof). The peptides were lyophilized and kept in powder at 4° C. until its use.

In data set [4] the test system is Clostridium perfringens (ATCC 13124). Particulars: ATCC 13124, 2 h, 7.1 μM.
Data set [5] deals with Streptococcus pneumoniae (ATCC 49619). The conditions noted are these: ATCC 49619, 2 h, 7.1 μM.
Data set [6] relates to Escherichia coli (ATCC 25922). The conditions noted are these: ATCC 25922, 2 h, 7.1 μM.
Another data set has as its system human red blood cells. Put plainly: Hemolytic activity in human erythrocytes. It is filed as cell-based. The conditions noted are these: for Percentage of hemolysis, X ± SD: hematocryte 0.5%, 1 h room temperature. As to the method:
FIG. 5 Effect of P1 in human red blood cells; Human red blood cells were resuspended to a hematocryte of 0.5% in the isotonic solutions indicated in materials and methods. The peptide P1 was added at different concentrations to the cellular suspensions and incubated for 1 hour at room temperature. The supernatants were obtained by centrifugation of the suspensions at 10000 rpm for 5 min at 4° C. (International Equipment Company IEC, Centra MP4R; rotor 851), the absorbance of the supernatants was registered at 415 nm with a spectrophotometer (BIORAD). The results were expressed as percentage of hemolysis relative to the maximum hemolysis (erythrocytes hemolysed in 0.01% Tween-20).
FIG. 6 The hemolysis caused by P1 in the erythrocytes decreases with an increase in the hematocryte; human red blood cells were resuspended at different hematocrytes: 0.5%, 2.5% and 10% in 150 mM NaCl, 5 mM KCl, 5 mM Glucose, 10 mM HEPES-tris, pH 7.4. Peptide P1 was added at different concentrations in the cellular suspension and incubated during 1 h at room temperature. The supernatants were obtained by centrifugation at 10000 rpm for 5 min at 4° C. and the absorbance at 415 nm was determined with a BIORAD spectrophotometer. The results were expressed as percentage of hemolysis relative to the maximum hemolysis (erythrocytes lysed in 0.01% Tween-20).
The hemolytic activity of peptide P1 was determined in heparinized human red blood cells from a volunteer (final concentration of heparin 20.4 U/ml), and washed three times in 150 mM NaCl, 9 mM Na2PO4, pH 7.3, at room temperature. The red blood cells were resuspended to an hematocryte of 0.5% in isotonic solutions 150 mM NaCl, 5 mM KCl, 5 mM Glucose, 10 mM HEPES-tris, pH 7.4; 155 mM KCl, 5 mM Glucose, 10 mM HEPES-tris, pH 7.4; 300 mM saccharose, 5 mM KCl, 5 mM Glucose, 10 mM HEPES-tris, pH 7.4; 150 mM polyethyleneglycol-1500 (PEG-1500), 5 mM KCl, 5 mM Glucose, 10 mM HEPES-tris, pH 7.4. […] The supernatants were recovered by centrifugation of the cellular suspension at 10000 rpm for 5 min at 4° C. and the absorbance at 415 nm was determined in a BIORAD spectrophotometer. The averages and standard deviations were calculated and the data were introduced to the program SigmaPlot V4.0 in order to generate the corresponding graphs (FIGS. 3 and 4).

Data set [7] has as its system Staphylococcus aureus (ATCC 25923). The conditions noted are these: ATCC 25923, 2 h, 7.1 μM.

As for `CC(C)[C@@H]1NC(=O)[C@H](C)OC(=O)[C@@H](C(C)C)NC(=O)[C@@H](C(C)C)OC(=O)[C@H](C(C)C)NC(=O)[C@H](C)OC(=O)[C@@H](C(C)C)NC(=O)[C@@H](C(C)C)OC(=O)[C@H](C(C)C)NC(=O)[C@H](C)OC(=O)[C@@H](C(C)C)NC(=O)[C@@H](C(C)C)OC1=O` [valinomycin], in data set [1] (0.12 μM valinomycin, medium 125 mM KNO3, 5 mM HEPES-tris, FIG. 1 Panel A curve e), the “Rate of mitochondrial swelling (slope)” value worked out at 1.4.
On to `N#CC(C#N)=NNc1ccc(OC(F)(F)F)cc1` [FCCP, carbonyl-cyanide-p-trifluoromethoxy phenylhydrazone], for which the “Speed of mitochondrial swelling (slope)” value in data set [1] (2 μM FCCP, medium 125 mM NH4NO3, 5 mM HEPES-tris, FIG. 1 Panel B curve f) came to 3.5.
As for “VAPIAKYLATALAKWALKQGFAKLKS-NH2 (C-terminus assumed) [P1]”, the “% of growth inhibition” value in data set [2], in data set [4], in data set [5], in data set [6] and in data set [7] was 100% in each case. Besides, the “Solubility in aqueous solutions” value in data set [3] is reported as “highly soluble”. In addition, the “Percentage of hemolysis, X ± SD” value was 17.25 ± 1.05% with human red blood cells (0.36 μM P1, isotonic medium KCl 150 mM); 3.75 ± 0.05% in the data set with human red blood cells (0.36 μM P1, isotonic medium NaCl 150 mM); 0.25 ± 0.07% in the data set with human red blood cells (0.36 μM P1, isotonic medium PEG-1500 150 mM); 57.5 ± 0.73% with human red blood cells (0.36 μM P1, isotonic medium Saccharose 150 mM); 64.25 ± 1.23% with human red blood cells (3.6 μM P1, isotonic medium KCl 150 mM); 59.25 ± 1.15% with human red blood cells (3.6 μM P1, isotonic medium NaCl 150 mM). In addition, the “Percentage of hemolysis, X ± SD” value in the data set with human red blood cells (3.6 μM P1, isotonic medium PEG-1500 150 mM) is recorded as 2.75 ± 0.3%; in the data set on human red blood cells (3.6 μM P1, isotonic medium Saccharose 150 mM), 75.5 ± 10.38%. Besides, the “Permeability order of hemolytic activity by isotonic medium” value with human red blood cells (0.36 μM peptide, order disappears at 3.6 μM) was “saccharose>KCl>NaCl”. For the same molecule, the “Hemolytic activity with increased hematocryte” value with human red blood cells (hematocryte increased at 10%, NaCl medium) is listed as “decreases dramatically”. For the same molecule, in the data set on human red blood cells (hematocryte is high), the “Hemolytic activity in a physiological solution” value is given as “insignificant”. The “Hemolytic activity (in words)” value in the data set with human red blood cells (isotonic medium PEG-1500) is given as “does not show hemolytic activity”.
